Test results reported in patent US6638938B1, “Method for preventing tissue injury from hypoxia” (Cell Therapeutics, Inc., priority 1993, dated 2003).

What was measured:
[1] = test system: LPAAT (lysophosphatidic acyltransferase); assay: inhibition of LPAAT activity; format: biochemical; settings: LPAAT activated by IL-1
human neutrophils = assay: neutrophil adherence to nylon fiber; format: cell-based
From the text: Human recombinant interleukin-1α (IL-1) was obtained from Hoffmann-LaRoche, Inc. (Nutley, N.J.), frozen inaliquots and thawed daily for use. Ketamine hydrochloride was obtained from Parke-Davis (Morris Plains, N.J.), xylazine from Haver (New York, N.J.), ^125I labeled bovine serum albumin (BSA) from ICN Radiochemicals (Irvine, Calif.), and heparin sodium from Elkins-Sinn, Inc. (Cherry Hill, N.J.). All other reagents were purchased from Sigma Chemical Co. (St. Louis, Mo.). Neutrophils were purified from human blood by well described methods. Venous blood was anticoagulated with heparin and the cellular elements were separated from platelet-rich plasma by centrifugation. Cell pellets were resuspended in platelet-poor plasma and diluted 1:4 with 6% dextran (Pharmacia Fine Chemicals, Piscataway, N.J.) in saline. Red cells were separated from leukocytes by sedimentation. Leukocyte-rich supernatants were then aspirated, underlain with Ficoll-Hypaque (Pharmacia Fine Chemicals), and centrifuged at 275×g to separate neutrophils and monocytes. Sedimented neutrophils were resuspended in Hank's balanced salt solution (HBSS). These preparations contained 94 to 96% neutrophils and 4 to 6% monocytes. All values were compared by analysis of variance and corrected by post hoc Student t tests for differences between groups. A p value of <0.05 was considered significant.
Neutrophil adherence was measured using the nylon fiber technique. Briefly, 50 mg of scrubbed nylon fiber (3-XXX), 3.81 cm type 200 (Travenol Laboratories, Deerfield, Ill.), was packed into the distal 10 mm of the barrels of tuberculin syringes. Ficoll-Hypaque-purified human neutrophils (1×10^7 cells) in plasma (total volume, 0.25 ml) with and without Lisofylline were then placed in the top of the nylon fiber column which was maintained at 37° C. After 90 sec, the plunger was inserted and the samples were eluted. Eluted neutrophils were counted by hemocytometer, and percentages of neutrophils adhering to the nylon fiber were calculated by the following formula: [formula]
Neutrophil chemotactic activity was determined by Boyden chamber assay and quantitated as the number of migrating PMN/5HPF using zymosan-activated serum (ZAS) as the chemoattractant (Repine et al., J. Reticuloendo. Soc. 24:217, 1978). Neutrophil adherence was assessed by quantitating the percentage of neutrophils adhering to nylon fibers following addition of phorbol myristate acetate (PMA 10-^6M, Sigma) (Rasp et al., J. Reticuloendo. Soc. 25:101, 1979). Neutrophil superoxide production was determined by quantitating superoxide dismutase inhibitable reduction of cytochrome c in response to PMA (10^−6 M) (Berger et al., J. Infectious Dis. 149:413, 1984).

[2] = test system: human neutrophils (PA, lyso-PA); assay: PA and lyso-PA mass in human neutrophils after hypoxia/reoxygenation; format: cell-based
Procedure: This example provides evidence from a group of experiments of the nexus and relationship between inhibiting linoleate-enriched PA species and reversal of hypoxic/reoxygenation tissue injury with Lisofylline. Lisofylline treated human neutrophils were exposed to hypoxia and then reoxygenation in vitro. Human neutrophils (PMN) were prepared from heparinized blood obtained from consenting, healthy human volunteers, isolated and highly purified (>99%)-by percoll gradient anddifferential centrifugation and resuspended in HBSS (Hanks balanced salt solution). Human neutrophils were placed in hypoxia (95% N2+5% CO2) for 60 min and then reoxygenated (21% O2+5% CO2) for 20 min.
Following hypoxia/reoxygenation, human neutrophils had increased PA concentrations with a retention time (Rf) characteristic of linoleate-enriched PA species. The analysis was done by fixing the neutrophils in ice-cold methanol, extracting the lipids and then separating them by HPLC using a Waters μ-Porosil silica column and an anisocratic gradient (Bursten et al., J. Biol. Chem. 266:20732, 1991). Lipids in the column effluent were monitored at 206-224nm. HPLC fractions were also analyzed by thin layer chromatography (TLC), amine content, acyl content and mass spectroscopy to confirm peak identities. Fast-atom bombardrment (FAB) mass spectroscopy spectra were acquired using a VG 70 SEQ tandem hybrid instrument of EBqQ geometry (VG Analytical, Altricham UK) as described in Bursten et al. The mass of total PA varied from 0.65-0.75% in unstimulated neutrophils to 2.7-3.6% of total detectable lipids in stimulated neutrophils (i.e., increased by 3.5-5 fold), whereas lyso-PA mass in neutrophils pretreated with Lisofylline and subject to hypoxia/reoxygenation stimulation could range as high as 7-8% of total detectable lipids. Hypoxia/reoxygenated neutrophils preincubated with 10 μM to 100 μM Lisofylline had decreased PA and increased lyso-PA total mass compared to untreated but stimulated neutrophils.

[3] = hypoxia/reoxygenated neutrophils preincubated with 10 μM to 100 μM, versus untreated but stimulated

## C[C@@H](O)CCCCn1c(=O)c2c(ncn2C)n(C)c1=O [Lisofylline, 1-R-(5-hydroxyhexyl)-3,7-dimethylxanthine]
[1]
  mode of LPAAT inhibition: direct inactivator and competitive inhibitor
Human neutrophils; Neutrophils + PMA + Lisofylline 0.7 μM
  Neutrophil Adherence: 35.8 ± 4.52 (4)δ %
Human neutrophils; Neutrophils + PMA + Lisofylline 7 μM
  Neutrophil Adherence: 38.8 ± 1.38 (4)δ %
Human neutrophils; Neutrophils + PMA + Lisofylline 70 μM
  Neutrophil Adherence: 25.6 ± 2.78 (5)δ %
Human neutrophils; Neutrophils + PMA + Lisofylline 700 μM
  Neutrophil Adherence: 26.6 ± 6.03 (5)δ %
Human neutrophils; PMA 10^-6 M, in vitro
  stimulated human neutrophil adherence: reduced
[2]; [3]
  PA total mass: decreased
  lyso-PA total mass: increased
[2]; neutrophils pretreated with Lisofylline, hypoxia/reoxygenation stimulation, could range as high as
  lyso-PA mass: 7-8 % of total detectable lipids
